From patent US12502410B2, “Preservation of pancreatic islet grafts in the extrahepatic space” (The Regents of the University of California, priority 2017, dated 2025)

B1: parathyroid hormone (protein, UniProt P01270 32-115, looked up)
Parathyroid hormone: SVSEIQLMHNLGKHLNSMERVEWLRKKLQDVHNFVALGAPLAPRDAGSQRPRKKEDNVLVESHEKSLGEADKADVNVLTKAKSQ
modifications: Parathyroid hormone
notes: main PTG-secreted hormone added to cultures

Tests used:
[1] = tested on: human islets; assay: Amino acid supplementation, viability of high density culture (PI staining); assay type: cell-based; settings: 1000 islets/mL, RPMI+5% serum
Source text: (§1) FIG. 15A, FIG. 15B, and FIG. 15C depict the effect of nutrient supplementation on islet cell death in vitro. The effects of cell survival by supplementation of amino acids on mouse islets (FIG. 15A), human islets (FIG. 15B), and SCIPC (FIG. 15C) cultured in low or high density conditions (mouse=1000 islets/mL, human=1000 islets/mL, SCIPC=3000 clusters/mL) in RPMI+5% serum with addition of glucose. GLN: glutamine, TRP: tryptophan. Cell viability is quantified using PI staining via flow cytometry. Data shown are a summary of 3 independent experiments.
(§2) Various insulin-producing cells cultured in low (nutrient replete; mouse=200 islets/mL, human=200 islets/mL, SCIPC=200 clusters/mL) or high density conditions (nutrient limiting; mouse=1000 islets/mL, human=1000 islets/mL, SCIPC=3000 clusters/mL) in RPMI+5% serum with addition of glucose.

[2] = tested on: mouse islets; assay: as above; assay type: cell-based; settings: 1000 islets/mL, RPMI+5% serum
Source text: as §1, §2

[3] = tested on: SCIPC; assay: as above; assay type: cell-based, human; settings: 3000 clusters/mL, RPMI+5% serum
Source text: as §1, §2

[4] = tested on: eBC; assay: eBC viability in nutrient deprived and/or hypoxic culture, PI staining and flow cytometry; assay type: cell-based, human; settings: 24 hours; for beta cell survival: nutrient deprived and/or hypoxic; for preservation of insulin-producing cells after stress: nutrient deprived or hypoxic
Protocol: (§3) SCIPC cultured for 24 hours in nutrient deprived and/or hypoxic conditions with or without GABA, PTH, and PTHrP At the end of the experiment, islet viability was measured using PI staining followed by flow cytometry. FIG. 11B depicts the effect of GABA, PTH and PTHrP on preserving insulin-producing cells after stress. FIG. 11C depicts quantification of viability of eBC cultured for 24 hours in nutrient deprived or hypoxic conditions with or without GABA, PTH, and PTHrP. […] Quantification of viability of cBC cultured for 24 hours in nutrient deprived and/or hypoxic conditions with or without leptin or serotonin. Islet viability measured using PI staining followed by flow cytometry.
(§4) In order to understand whether cell survival is due to secreted pro-survival or pro-angiogenic molecules, known PTG-released molecules were added to SCIPC and eBC cultures in vitro. While PTH is the main PTG-secreted hormone, previous publications also show GABA production within the PTG. GABA and PTH improve beta cell survival in nutrient deprived and/or hypoxic environment in vitro (FIG. 11A).

[5] = tested on: SCIPC; assay: SCIPC viability in nutrient deprived and/or hypoxic culture, PI staining and flow cytometry; assay type: cell-based, human; settings: for preservation of insulin-producing cells after stress: SCIPC; for beta cell / SCIPC survival: nutrient deprived and/or hypoxic environment, 24 hours
Protocol: as §3, §4

Molecule | preservation of insulin-producing cells after stress [5] | beta cell / SCIPC survival [5] | preservation of insulin-producing cells after stress [4] | further results
NC(=O)CC[C@H](N)C(=O)O [glutamine] | – | – | – | viability under nutrient-limiting condition [1]: preserved viability; viability under nutrient-limiting condition [2]: preserved viability; viability under nutrient-limiting condition [3]: preserved viability
N[C@@H](Cc1c[nH]c2ccccc12)C(=O)O [tryptophan] | – | – | – | viability under nutrient-limiting condition [1]: preserved viability; viability under nutrient-limiting condition [2]: preserved viability; viability under nutrient-limiting condition [3]: preserved viability
leptin | – | – | – | beta cell survival [4]: preserves beta cell survival
NCCCC(=O)O [GABA] | preferentially preserve | improve | preferentially preserve | –
NCCc1c[nH]c2ccc(O)cc12 [serotonin] | – | – | – | beta cell survival [4]: preserves beta cell survival
parathyroid hormone-related protein [PTHrP] | preferentially preserve | preserve SCIPC survival | preferentially preserve | –
B1 | preferentially preserve | improve | preferentially preserve | –
